The structures appear in SMILES notation. Where a name gives a salt, the structure may show the parent alone. Bounds are passed on as bounds.

Data set [1] is described as follows: Excipient compatibility by DSC. Particulars: 1:1 (w/w) mixtures with xanthan gum, chitosan, magnesium stearate, NaHCO3. Format: physicochemical. The method, then: Samples of 5-10 mg in weight were placed in hermetically sealed DSC pans. Samples were scanned at a rate of 10° C./min, and thermograms were obtained. The thermal analyzer (DSC) was calibrated prior to use by indium. The calibration procedure was repeated many times prior to DSC runs.

The conditions of data set [2]: cited from earlier work.
For data set [3] the following is noted: administered orally; cited from earlier work.

On to `CC(C)(C)NCC(O)c1cc(O)cc(O)c1` (stereo not drawn) [Terbutaline sulfate], for which the “Excipient compatibility (DSC thermograms)” value in data set [1] is recorded as “excipients are compatible with Terbutaline sulfate”. The Solubility in water in data set [2] was > 20 mg/mL. Further, in data set [3], the Biological half-life result is “about 3.6 hrs”.

The record behind these values is patent US20080206334A1 (priority 2005, published 2008).
